# Results published in patent EP4768018A1, “TOPICAL GEL FOR JAK INHIBITOR AND USE THEREOF” (Prime Gene Therapeutics Co., Ltd., priority 2023, dated 2025).
# Tests used:
# [1] = Solubility of crystal forms in 20% propylene glycol at 32°C; assay type: physicochemical
# Method: (§1) Solubility Study of Various Crystal Forms
# Solubility in 20% Propylene Glycol at 32°C (µg/mL)
# [2] = Solubility of crystal forms at different pH (37°C, 24 h); assay type: physicochemical
# Method: as §1
# Solubility Measurement Results (37°C, 24 h)
# [3] = Long-term (24 months) stability study of crystal forms; assay type: physicochemical; conditions: for stability study result in words: 24 months
# Method: In accordance with the stability study guidelines issued by the China's National Medical Products Administration (NMPA), stability studies were conducted on Crystal Forms I, IIa, and IIb. Samples were packaged in pharmaceutical low-density polyethylene bags, and long-term stability (24 months) was evaluated.
# [4] = Crystal form conversion (room temperature; in the gel formulation, XRPD); assay type: physicochemical; conditions: for crystal form of the active pharmaceutical ingredient in the final gel formulation: after 3 days, XRPD, FIG. 5 to FIG. 6
# Method: Crystal Form IIa converts to Crystal Form IIb within 1 hour at room temperature (58.6% RH). During the preparation of topical gel formulation, Crystal Form I and Crystal Form IIb were respectively used as active pharmaceutical ingredients.
# [5] = Transdermal test of crystal forms as topical gel in rats (permeation, drug content in skin by LC/MS/MS); assay type: in vivo, rat; conditions: topical gel according to the compositions of Example 1; FIG. 10A and FIG. 10B; Crystal Form I versus Crystal Form IIb
# Method: Crystal Forms I and IIb were prepared into topical gel formulations according to the compositions of Example 1, and transdermal tests were immediately conducted to determine their respective transdermal rates.
# Blood samples were collected at 0.25, 0.5, 1, 2, 4, 6, 8, and 24 hours after topical administration. Using a small animal anesthesia machine, 0.3 mL of whole blood was collected from the retro-orbital venous plexus under isoflurane anesthesia and placed in heparin anticoagulant tubes. Samples were centrifuged at 4°C, 4000 rpm for 5 minutes, plasma was transferred to centrifuge tubes, and stored at -80°C until analysis. Samples in plasma were extracted using protein precipitation, and the extract was analyzed by LC/MS/MS. After the test, the drug on skin was washed off, and the rat skin at administration site was excised, homogenized, and analyzed by LC/MS/MS for drug content in the skin. Table 4 Drug Concentration in Skin 24 h After Topical Administration
# [6] = Storage stability of Crystal Form III (NMR); assay type: physicochemical
# Method: Add 15 mg of 2-{3-[3-amino-4-(7H-pyrrolo[2,3-d]pyrimidin-4-yl)-1H-pyrazol-1-yl]-1-(isopropylsulfonyl)azetidin-3-yl}acetonitrile to 3 mL of dioxane, heat to 40°C to dissolve and obtain a clear solution, filter, and allow the solution to crystallize by evaporation at 40°C to obtain Crystal Form III.
smiles,measurement,setting,value
"CC(C)S(=O)(=O)N1CC(CC#N)(n2cc(-c3ncnc4[nH]ccc34)c(N)n2)C1 [Crystal Form I, 2-{3-[3-amino-4-(7H-pyrrolo[2,3-d]pyrimidin-4-yl)-1H-pyrazol-1-yl]-1-(isopropylsulfonyl)azetidin-3-yl}acetonitrile Crystal Form I]",Solubility in 20% Propylene Glycol at 32°C,[1]; 10 min,12.7 µg/mL
same,Solubility in 20% Propylene Glycol at 32°C,[1]; 30 min,26.9 µg/mL
same,Solubility in 20% Propylene Glycol at 32°C,"[1]; 1 h, 60 min",35.8 µg/mL
same,Solubility in 20% Propylene Glycol at 32°C,"[1]; 2 h, 120 min",42.1 µg/mL
same,Solubility Conc.,"[2]; pH 1.0, 1440 min",464.2 µg/mL
same,Solubility Conc.,"[2]; pH 2.0, 1440 min",37.8 µg/mL
same,Solubility Conc.,"[2]; pH 3.8, 1440 min",2.3 µg/mL
same,Solubility Conc.,"[2]; pH 4.5, 1440 min",1.8 µg/mL
same,Solubility Conc.,"[2]; pH 5.5, 1440 min",1.6 µg/mL
same,Appearance,[3]; 0 month,Off-white powder
same,Content,[3]; 0 month,99.9%
same,Loss on Drying,[3]; 0 month,0.08%
same,Related Substances Max Unknown Single Impurity,[3]; 0 month,0.17%
same,Related Substances Total Impurity,[3]; 0 month,0.58%
same,Appearance,[3]; 3 month,Off-white powder
same,Loss on Drying,[3]; 3 month,0.06%
same,Related Substances Max Unknown Single Impurity,[3]; 3 month,0.16%
same,Related Substances Total Impurity,[3]; 3 month,0.57%
same,Content,"[3]; 3 month, 131040 min",100.1%
same,Appearance,[3]; 6 month,Off-white powder
same,Loss on Drying,[3]; 6 month,0.08%
same,Related Substances Max Unknown Single Impurity,[3]; 6 month,0.17%
same,Related Substances Total Impurity,[3]; 6 month,0.57%
same,Content,"[3]; 6 month, 263520 min",100.0%
same,Appearance,[3]; 9 month,Off-white powder
same,Loss on Drying,[3]; 9 month,0.11%
same,Related Substances Max Unknown Single Impurity,[3]; 9 month,0.17%
same,Related Substances Total Impurity,[3]; 9 month,0.57%
same,Content,"[3]; 9 month, 394560 min",99.8%
same,Appearance,[3]; 12 month,Off-white powder
same,Loss on Drying,[3]; 12 month,0.09%
same,Related Substances Max Unknown Single Impurity,[3]; 12 month,0.17%
same,Related Substances Total Impurity,[3]; 12 month,0.55%
same,Content,"[3]; 12 month, 525600 min",99.9%
same,Appearance,[3]; 18 month,Off-white powder
same,Loss on Drying,[3]; 18 month,0.12%
same,Related Substances Max Unknown Single Impurity,[3]; 18 month,0.18%
same,Related Substances Total Impurity,[3]; 18 month,0.62%
same,Content,"[3]; 18 month, 789120 min",99.7%
same,Appearance,[3]; 24 month,Off-white powder
same,Loss on Drying,[3]; 24 month,0.10%
same,Related Substances Max Unknown Single Impurity,[3]; 24 month,0.16%
same,Related Substances Total Impurity,[3]; 24 month,0.59%
same,Content,"[3]; 24 month, 1.0512e+06 min",99.8%
same,stability study result in words,[3],good chemical stability
same,crystal form of the active pharmaceutical ingredient in the final gel formulation,[4],exclusively in form IIb
same,transdermal performance,[5],better transdermal performance
"CC(C)S(=O)(=O)N1CC(CC#N)(n2cc(-c3ncnc4[nH]ccc34)c(N)n2)C1 [Crystal Form III, 2-{3-[3-amino-4-(7H-pyrrolo[2,3-d]pyrimidin-4-yl)-1H-pyrazol-1-yl]-1-(isopropylsulfonyl)azetidin-3-yl}acetonitrile Crystal Form III]",impurity formation,"[6]; after storage, NMR",approximately 10%
same,stability,[6]; in words,poor stability
"CC(C)S(=O)(=O)N1CC(CC#N)(n2cc(-c3ncnc4[nH]ccc34)c(N)n2)C1 [Crystal Form IIa, 2-{3-[3-amino-4-(7H-pyrrolo[2,3-d]pyrimidin-4-yl)-1H-pyrazol-1-yl]-1-(isopropylsulfonyl)azetidin-3-yl}acetonitrile Crystal Form IIa]",Appearance,[3]; 0 month,Off-white powder
same,Content,[3]; 0 month,99.8%
same,Crystal Form,[3]; 0 month,IIa
same,Loss on Drying,[3]; 0 month,0.06%
same,Related Substances Max Unknown Single Impurity,[3]; 0 month,0.06%
same,Related Substances Total Impurity,[3]; 0 month,0.28%
same,Appearance,[3]; 3 month,Off-white powder
same,Crystal Form,[3]; 3 month,IIb
same,Loss on Drying,[3]; 3 month,0.18%
same,Related Substances Max Unknown Single Impurity,[3]; 3 month,0.08%
same,Related Substances Total Impurity,[3]; 3 month,0.28%
same,Content,"[3]; 3 month, 131040 min",97.6%
same,Appearance,[3]; 6 month,Off-white powder
same,Crystal Form,[3]; 6 month,IIb
same,Loss on Drying,[3]; 6 month,0.19%
same,Related Substances Max Unknown Single Impurity,[3]; 6 month,0.11%
same,Related Substances Total Impurity,[3]; 6 month,0.27%
same,Content,"[3]; 6 month, 263520 min",97.8%
same,Appearance,[3]; 9 month,Off-white powder
same,Crystal Form,[3]; 9 month,IIb
same,Loss on Drying,[3]; 9 month,0.24%
same,Related Substances Max Unknown Single Impurity,[3]; 9 month,0.06%
same,Related Substances Total Impurity,[3]; 9 month,0.24%
same,Content,"[3]; 9 month, 394560 min",97.9%
same,Appearance,[3]; 12 month,Off-white powder
same,Crystal Form,[3]; 12 month,IIb
same,Loss on Drying,[3]; 12 month,0.20%
same,Related Substances Max Unknown Single Impurity,[3]; 12 month,0.09%
same,Related Substances Total Impurity,[3]; 12 month,0.22%
same,Content,"[3]; 12 month, 525600 min",97.8%
same,Appearance,[3]; 18 month,Off-white powder
same,Crystal Form,[3]; 18 month,IIb
same,Loss on Drying,[3]; 18 month,0.16%
same,Related Substances Max Unknown Single Impurity,[3]; 18 month,0.07%
same,Related Substances Total Impurity,[3]; 18 month,0.26%
same,Content,"[3]; 18 month, 789120 min",98.0%
same,Appearance,[3]; 24 month,Off-white powder
same,Crystal Form,[3]; 24 month,IIb
same,Loss on Drying,[3]; 24 month,0.25%
same,Related Substances Max Unknown Single Impurity,[3]; 24 month,0.08%
same,Related Substances Total Impurity,[3]; 24 month,0.29%
same,Content,"[3]; 24 month, 1.0512e+06 min",97.8%
same,stability study result in words,[3],gradually absorbs moisture during storage and converts to Crystal Form IIb
same,time of conversion to Crystal Form IIb,[4]; room temperature (58.6% RH),≤ 1 h
"CC(C)S(=O)(=O)N1CC(CC#N)(n2cc(-c3ncnc4[nH]ccc34)c(N)n2)C1 [Crystal Form IIb, 2-{3-[3-amino-4-(7H-pyrrolo[2,3-d]pyrimidin-4-yl)-1H-pyrazol-1-yl]-1-(isopropylsulfonyl)azetidin-3-yl}acetonitrile Crystal Form IIb]",Solubility in 20% Propylene Glycol at 32°C,[1]; 10 min,6.1 µg/mL
same,Solubility in 20% Propylene Glycol at 32°C,[1]; 30 min,9.5 µg/mL
same,Solubility in 20% Propylene Glycol at 32°C,"[1]; 1 h, 60 min",10.8 µg/mL
same,Solubility in 20% Propylene Glycol at 32°C,"[1]; 2 h, 120 min",11.2 µg/mL
same,Solubility in 20% Propylene Glycol at 32°C,"[1]; 18 h, 1080 min",13.3 µg/mL
same,Solubility Conc.,"[2]; pH 1.0, 1440 min",149.9 µg/mL
same,Solubility Conc.,"[2]; pH 2.0, 1440 min",17.4 µg/mL
same,Solubility Conc.,"[2]; pH 3.8, 1440 min",0.9 µg/mL
same,Solubility Conc.,"[2]; pH 4.5, 1440 min",0.7 µg/mL
same,Solubility Conc.,"[2]; pH 5.5, 1440 min",0.5 µg/mL
same,Solubility Conc.,"[2]; pH 6.8, 1440 min",0.6 µg/mL
same,Solubility Conc.,"[2]; pH 7.0, 1440 min",0.8 µg/mL
same,Solubility Conc.,"[2]; pH 8.0, 1440 min",0.7 µg/mL
same,Appearance,[3]; 0 month,Off-white powder
same,Content,[3]; 0 month,99.7%
same,Crystal Form,[3]; 0 month,IIb
same,Loss on Drying,[3]; 0 month,0.36%
same,Related Substances Max Unknown Single Impurity,[3]; 0 month,0.07%
same,Related Substances Total Impurity,[3]; 0 month,0.38%
same,Appearance,[3]; 3 month,Off-white powder
same,Crystal Form,[3]; 3 month,IIb
same,Loss on Drying,[3]; 3 month,0.36%
same,Related Substances Max Unknown Single Impurity,[3]; 3 month,0.08%
same,Related Substances Total Impurity,[3]; 3 month,0.38%
same,Content,"[3]; 3 month, 131040 min",99.7%
same,Appearance,[3]; 6 month,Off-white powder
same,Crystal Form,[3]; 6 month,IIb
same,Loss on Drying,[3]; 6 month,0.39%
same,Related Substances Max Unknown Single Impurity,[3]; 6 month,0.08%
same,Related Substances Total Impurity,[3]; 6 month,0.37%
same,Content,"[3]; 6 month, 263520 min",99.6%
same,Appearance,[3]; 9 month,Off-white powder
same,Crystal Form,[3]; 9 month,IIb
same,Loss on Drying,[3]; 9 month,0.34%
same,Related Substances Max Unknown Single Impurity,[3]; 9 month,0.08%
same,Related Substances Total Impurity,[3]; 9 month,0.38%
same,Content,"[3]; 9 month, 394560 min",99.5%
same,Appearance,[3]; 12 month,Off-white powder
same,Crystal Form,[3]; 12 month,IIb
same,Loss on Drying,[3]; 12 month,0.30%
same,Related Substances Max Unknown Single Impurity,[3]; 12 month,0.07%
same,Related Substances Total Impurity,[3]; 12 month,0.37%
same,Content,"[3]; 12 month, 525600 min",99.6%
same,Appearance,[3]; 18 month,Off-white powder
same,Crystal Form,[3]; 18 month,IIb
same,Loss on Drying,[3]; 18 month,0.31%
same,Related Substances Max Unknown Single Impurity,[3]; 18 month,0.07%
same,Related Substances Total Impurity,[3]; 18 month,0.39%
same,Content,"[3]; 18 month, 789120 min",99.6%
same,Appearance,[3]; 24 month,Off-white powder
same,Crystal Form,[3]; 24 month,IIb
same,Loss on Drying,[3]; 24 month,0.32%
same,Related Substances Max Unknown Single Impurity,[3]; 24 month,0.08%
same,Related Substances Total Impurity,[3]; 24 month,0.39%
same,Content,"[3]; 24 month, 1.0512e+06 min",99.7%
same,stability study result in words,[3],good chemical stability
same,crystal form of the active pharmaceutical ingredient in the final gel formulation,[4],exclusively in form IIb
